Values after ≈ are worked out from the molar mass of the structure shown.
conditions: not given

Row | Compound | solubility
1 | ClCCCCCl | 120 mM (≈ 15.3 mg/mL)
2 | CNC(=O)O/N=C1\[C@@H](Cl)[C@@H]2C[C@H](C#N)[C@H]1C2 | 8.28 mM (≈ 2 mg/mL)
3 | COC(=O)c1cc(O)c(O)c(O)c1 | 57.6 mM (≈ 10.6 mg/mL)
4 | O=C(OCC(O)CO)c1ccccc1Nc1ccnc2cc(Cl)ccc12 (centres undefined) | 107 mM (≈ 40 mg/mL)
5 | O=C1C=CC(=C(c2ccc(O)cc2)c2ccc(O)cc2)C=C1 | 4.13 mM (≈ 1.2 mg/mL)
6 | Cc1cc(C)c(C(=O)O)c(C)c1 | 4.4 mM (≈ 0.722 mg/mL)
7 | Cn1c(=O)[nH]c2[nH]c(=O)[nH]c2c1=O | 27.5 mM (≈ 5 mg/mL)
8 | CCc1cccc(CC)c1N | 4.49 mM (≈ 0.67 mg/mL)
9 | COc1coc(CSP(=O)(OC)OC)cc1=O | 5350 mM (≈ 1500 mg/mL)
10 | CN(C)c1ccc(C(=O)O)cc1 | 0.4 mM (≈ 0.0661 mg/mL)

same assay, conditions: 20 °C

Row | Compound | solubility
11 | CON(C)C(=O)Nc1ccc(Br)c(Cl)c1 | 0.119 mM (≈ 0.035 mg/mL)
12 | FC(F)(F)c1cccc(C(c2ccccc2)(c2ccccc2)n2cncn2)c1 | 3.95e-06 mM (≈ 1.5e-06 mg/mL)
13 | CC(C)OC(=O)C(C)N(C(=O)c1ccccc1)c1ccc(F)c(Cl)c1 (centres undefined) | 0.0373 mM (≈ 0.0136 mg/mL)
14 | Oc1cccc2ncccc12 | 2.87 mM (≈ 0.417 mg/mL)
15 | O=C(O)C=Cc1ccco1 | 14.5 mM (≈ 2 mg/mL)
16 | Clc1ccccc1-c1cccc(Cl)c1Cl | 0.00114 mM (≈ 0.000293 mg/mL)
17 | Clc1ccc2c(c1)Oc1c(Cl)c(Cl)c(Cl)c(Cl)c1O2 | 3.37e-07 mM (≈ 1.2e-07 mg/mL)
18 | CC(=O)CCC1C(=O)N(c2ccccc2)N(c2ccccc2)C1=O | 0.54 mM (≈ 0.174 mg/mL)
19 | O=C(O)c1nc[nH]c1C(=O)O | 3.2 mM (≈ 0.5 mg/mL)
20 | CC(C)CNC(=O)N1CCNC1=O | 7.02 mM (≈ 1.3 mg/mL)
21 | CCCI | 6.3 mM (≈ 1.07 mg/mL)
22 | O=C(Nc1ccccc1)c1ccccc1I | 0.0619 mM (≈ 0.02 mg/mL)
23 | OCCCBr | 1020 mM (≈ 142 mg/mL)
24 | CSc1nc(N=[N+]=[N-])nc(NC(C)C)n1 | 0.244 mM (≈ 0.055 mg/mL)
25 | Clc1c(Cl)c(Cl)c2c(c1Cl)Oc1c(Cl)c(Cl)c(Cl)c(Cl)c1O2 | 8.7e-10 mM (≈ 4e-10 mg/mL)
26 | C=CC(=O)Oc1c(Br)cc(Cl)c2cccnc12 | 0.0192 mM (≈ 0.006 mg/mL)

Row | Compound | solubility
27 | C#CC(C)N(C)C(=O)Nc1ccc(Cl)cc1 (centres undefined) | 0.127 mM (≈ 0.03 mg/mL)
28 | Cc1cccc(N)c1 | 140 mM (≈ 15 mg/mL)
29 | CNC(=O)N(C)c1nc2ccccc2s1 | 0.267 mM (≈ 0.059 mg/mL)
30 | CNc1ccccc1C(=O)O | 1.32 mM (≈ 0.2 mg/mL)
31 | Clc1ccc(-c2c(Cl)cc(Cl)c(Cl)c2Cl)cc1Cl | 2.24e-05 mM (≈ 8.07e-06 mg/mL)
32 | Cc1cc(Cl)ccc1N=CN(C)C | 1.37 mM (≈ 0.27 mg/mL)
33 | C[C@@H](CCl)[N+](=O)[O-] | 64.8 mM (≈ 8 mg/mL)
34 | CCOP(=S)(OCC)Oc1cc(C)nc(N(CC)CC)n1 | 0.0119 mM (≈ 0.00397 mg/mL)
35 | OC[C@H]1O[C@@H](n2cnc3c(O)ncnc32)[C@H](O)[C@@H]1O | 58.9 mM (≈ 15.8 mg/mL)
36 | CN=C=S | 104 mM (≈ 7.6 mg/mL)
37 | O=C(O)c1ccccc1C(c1ccc(O)cc1)c1ccc(O)cc1 | 0.546 mM (≈ 0.175 mg/mL)
38 | c1cnc2ncncc2n1 | 1080 mM (≈ 143 mg/mL)
39 | CC(C)Cl | 39.5 mM (≈ 3.1 mg/mL)
40 | O=C1C=C2CC3(O)COc4c(ccc(O)c4O)C3=C2C=C1O (centres undefined) | 2 mM (≈ 0.6 mg/mL)
41 | COP(=S)(OC)SCc1nc(N)nc(N)n1 | 0.853 mM (≈ 0.24 mg/mL)
42 | CCCOC(=O)c1ccccc1C(=O)OCCC | 0.432 mM (≈ 0.108 mg/mL)

same assay, conditions: 21 °C

Row | Compound | solubility
43 | CC12CCC(CC1)C(C)(C)O2 | 17.2 mM (≈ 2.65 mg/mL)
44 | O=C(O)CCCCCCCCCCCCC(=O)O | 0.774 mM (≈ 0.2 mg/mL)

same assay, conditions: 22 °C

Row | Compound | solubility
45 | C1CCN2C[C@@H]3C[C@@H](CN4CCCC[C@@H]34)[C@H]2C1 | 13 mM (≈ 3.04 mg/mL)
46 | CCC1(c2ccccc2)C(=O)NCNC1=O | 2.29 mM (≈ 0.5 mg/mL)

same assay, conditions: 23 °C

Row | Compound | solubility
47 | CC(=O)Nc1cc(NS(=O)(=O)C(F)(F)F)c(C)cc1C | 0.58 mM (≈ 0.18 mg/mL)
48 | C=C(C)C1CC=C(C)C(=O)C1 (centres undefined) | 8.67 mM (≈ 1.3 mg/mL)

same assay, conditions: 24 °C

Row | Compound | solubility
49 | O=P(OC(CCl)CCl)(OC(CCl)CCl)OC(CCl)CCl | 0.0162 mM (≈ 0.007 mg/mL)
50 | Cc1c2ccccc2cc2c1ccc1ccccc12 | 4.54e-05 mM (≈ 1.1e-05 mg/mL)
51 | O=C(O)c1ccc(O)c(C(=O)O)c1 | 1.65 mM (≈ 0.3 mg/mL)

same assay, conditions: 25 °C

Row | Compound | solubility
52 | C1=CC=CCC=C1 | 6.73 mM (≈ 0.62 mg/mL)
53 | CC(C)(N)C(=O)O | 1760 mM (≈ 181 mg/mL)
54 | CC1(C)C(=O)[C@@]2(C)CC[C@@H]1C2 | 14.1 mM (≈ 2.15 mg/mL)
55 | CC(=O)C(C)C | 706 mM (≈ 60.8 mg/mL)
56 | CCOC(=O)c1ccccc1 | 4.79 mM (≈ 0.72 mg/mL)
57 | Clc1cccc(-c2cc(Cl)ccc2Cl)c1 | 0.000982 mM (≈ 0.000253 mg/mL)
58 | CN(C)[C@@H]1C(O)=C(C(N)=O)C(=O)[C@@]2(O)C(O)=C3C(=O)c4c(O)cccc4[C@@](C)(O)[C@H]3[C@H](O)[C@@H]12 | 0.68 mM (≈ 0.313 mg/mL)
59 | O=C(O)c1cc(I)cc(I)c1O | 0.493 mM (≈ 0.192 mg/mL)
60 | Cc1cc(=O)[nH]c(=S)[nH]1 | 3.75 mM (≈ 0.533 mg/mL)
61 | CCOC(=O)CC#N | 177 mM (≈ 20 mg/mL)
62 | CC(=O)OCC(=O)[C@@]1(O)CCC2C3CCC4=CC(=O)CC[C@]4(C)C3[C@@H](O)C[C@@]21C (some centres undefined) | 0.0349 mM (≈ 0.0141 mg/mL)
63 | Clc1ccc(-c2cc(Cl)ccc2Cl)cc1 | 0.000555 mM (≈ 0.000143 mg/mL)
64 | CC(=O)Nc1ccccc1 | 51.3 mM (≈ 6.93 mg/mL)
65 | CC#CCCCC | 1.7 mM (≈ 0.163 mg/mL)
66 | CC1CCCCC1 | 0.152 mM (≈ 0.015 mg/mL)
67 | CC(C)C(O)C(C)C | 60.2 mM (≈ 7 mg/mL)
68 | CCCCCO | 250 mM (≈ 22 mg/mL)
69 | Fc1ccccc1CCl | 2.88 mM (≈ 0.416 mg/mL)
70 | Nc1cc[nH]c(=O)n1 | 72 mM (≈ 8 mg/mL)
71 | CC(=O)C(C)(C)C | 190 mM (≈ 19 mg/mL)
72 | S=C=Nc1cccc(Cl)c1 | 0.112 mM (≈ 0.019 mg/mL)
73 | O=C(Oc1ccccc1)c1ccccc1O | 0.7 mM (≈ 0.15 mg/mL)
74 | c1cc2ccc3ccc4ccc5cccc6c(c1)c2c3c4c56 | 9.41e-07 mM (≈ 2.6e-07 mg/mL)
75 | CCCCCCCCCCCCCC(=O)O | 0.00468 mM (≈ 0.00107 mg/mL)
76 | Clc1ccc(Cl)c(-c2cc(Cl)ccc2Cl)c1 | 5.24e-05 mM (≈ 1.53e-05 mg/mL)
77 | C[C@H]1c2cccc(O)c2C(=O)C2=C(O)[C@]3(O)C(=O)C(C(N)=O)=C(O)[C@@H](N(C)C)[C@@H]3[C@@H](O)[C@@H]21 | 1.42 mM (≈ 0.63 mg/mL)
78 | CC(C)CCOC(=O)c1ccccc1O | 0.696 mM (≈ 0.145 mg/mL)

Row | Compound | solubility
79 | C#CCCCCC | 0.977 mM (≈ 0.094 mg/mL)
80 | CCCOP(=O)(OCCC)Oc1ccc(SC)cc1 | 0.411 mM (≈ 0.125 mg/mL)
81 | c1ccc2c(c1)CCN2 | 90.6 mM (≈ 10.8 mg/mL)
82 | COc1ccc2c(c1OC)C(=O)OC2 | 12.9 mM (≈ 2.5 mg/mL)
83 | CSCCC(N)C(=O)O (racemic) | 331 mM (≈ 49.3 mg/mL)
84 | CCCC(=O)CC | 147 mM (≈ 14.7 mg/mL)
85 | CCC1NC(=O)c2cc(S(N)(=O)=O)c(Cl)cc2N1 (centres undefined) | 0.518 mM (≈ 0.15 mg/mL)
86 | c1ccc2c(c1)OCCOCCOc1ccccc1OCCOCCO2 | 0.0203 mM (≈ 0.0073 mg/mL)
87 | Nc1ncnc2[nH]cnc12 | 7.62 mM (≈ 1.03 mg/mL)
88 | COc1ccc2c(c1)c(CC(=O)O)c(C)n2C(=O)c1ccc(Cl)cc1 | 0.00262 mM (≈ 0.000937 mg/mL)
89 | CCCCC=O | 136 mM (≈ 11.7 mg/mL)
90 | O=C(O)COc1cccc(Cl)c1Cl | 1.55 mM (≈ 0.343 mg/mL)
91 | CCCCCCC(=O)O | 21.6 mM (≈ 2.82 mg/mL)
92 | C#CCCCC | 4.73 mM (≈ 0.388 mg/mL)
93 | CCCCCCCCCC | 0.000365 mM (≈ 5.2e-05 mg/mL)
94 | CC(=O)O[C@@H](C(=O)O)c1ccccc1 | 58.7 mM (≈ 11.4 mg/mL)
95 | O=C(O)c1ccc([N+](=O)[O-])cc1[N+](=O)[O-] | 85.8 mM (≈ 18.2 mg/mL)
96 | C=CCCCCCCC | 0.00887 mM (≈ 0.00112 mg/mL)
97 | CCC(C)c1ccccc1 (centres undefined) | 0.131 mM (≈ 0.0176 mg/mL)
98 | C=CCCCC=C | 0.458 mM (≈ 0.044 mg/mL)
99 | CCC#CCC | 6.8 mM (≈ 0.559 mg/mL)
100 | O=C(O)CCI | 372 mM (≈ 74.3 mg/mL)
101 | CC1=CCCCC1 | 0.541 mM (≈ 0.052 mg/mL)
102 | OC(c1ccccc1)c1ccccc1 | 2.82 mM (≈ 0.52 mg/mL)
103 | C=C(C)C | 4.69 mM (≈ 0.263 mg/mL)
104 | CCSCCSP(=S)(OC)OC | 0.812 mM (≈ 0.2 mg/mL)
105 | Cc1cc(Cl)ccc1OCC(=O)O | 3.14 mM (≈ 0.63 mg/mL)

same assay, conditions: 27 °C

Row | Compound | solubility
106 | C#C[C@]1(O)CC[C@H]2[C@@H]3CCC4=CC(=O)CC[C@]4(C)[C@H]3CC[C@@]21C | 0.0022 mM (≈ 0.000687 mg/mL)
107 | CC(=O)[C@@]1(O)CC[C@H]2[C@@H]3CCC4=CC(=O)CC[C@]4(C)[C@H]3CC[C@@]21C | 0.0196 mM (≈ 0.00648 mg/mL)
108 | Cc1cc2c3ccccc3ccc2c2ccccc12 | 0.000268 mM (≈ 6.5e-05 mg/mL)

same assay, conditions: 28 °C

Row | Compound | solubility
109 | c1ccc2c(c1)CCCC2 | 0.354 mM (≈ 0.0468 mg/mL)

same assay, conditions: 30 °C

Row | Compound | solubility
110 | C=CCCCCCCCCC(=O)O | 0.4 mM (≈ 0.0737 mg/mL)
111 | COc1c2occc2cc2ccc(=O)oc12 | 0.22 mM (≈ 0.0476 mg/mL)
112 | NCCCCCCCCCCC(=O)O | 4.97 mM (≈ 1 mg/mL)
113 | COc1ccccc1C(=O)O | 32.9 mM (≈ 5 mg/mL)
114 | CCOC(=O)C1(c2ccccc2)CCN(C)CC1 | 13 mM (≈ 3.22 mg/mL)
